Source: patent US20240116985A1, “STAPLED PEPTIDES AND METHODS THEREOF” (priority 2020, published 2024)
pIC50: −log10 of the molar value. Like-named read-outs stand apart in the source and are kept apart here.

Key:
[1] = biological target: T1, beta-catenin/TCF4 engagement (Homo sapiens, UniProt P35222); test: Nano-BRET target engagement assay (B-cat-Halo & TCF4-Luc in HEK293 cells); assay type: cell-based; conditions: read-out: NanoBRET Abs IC50
T1 construct: expressed in transfected cells; host or cells: HEK293
T1 sequence (P35222 1-781): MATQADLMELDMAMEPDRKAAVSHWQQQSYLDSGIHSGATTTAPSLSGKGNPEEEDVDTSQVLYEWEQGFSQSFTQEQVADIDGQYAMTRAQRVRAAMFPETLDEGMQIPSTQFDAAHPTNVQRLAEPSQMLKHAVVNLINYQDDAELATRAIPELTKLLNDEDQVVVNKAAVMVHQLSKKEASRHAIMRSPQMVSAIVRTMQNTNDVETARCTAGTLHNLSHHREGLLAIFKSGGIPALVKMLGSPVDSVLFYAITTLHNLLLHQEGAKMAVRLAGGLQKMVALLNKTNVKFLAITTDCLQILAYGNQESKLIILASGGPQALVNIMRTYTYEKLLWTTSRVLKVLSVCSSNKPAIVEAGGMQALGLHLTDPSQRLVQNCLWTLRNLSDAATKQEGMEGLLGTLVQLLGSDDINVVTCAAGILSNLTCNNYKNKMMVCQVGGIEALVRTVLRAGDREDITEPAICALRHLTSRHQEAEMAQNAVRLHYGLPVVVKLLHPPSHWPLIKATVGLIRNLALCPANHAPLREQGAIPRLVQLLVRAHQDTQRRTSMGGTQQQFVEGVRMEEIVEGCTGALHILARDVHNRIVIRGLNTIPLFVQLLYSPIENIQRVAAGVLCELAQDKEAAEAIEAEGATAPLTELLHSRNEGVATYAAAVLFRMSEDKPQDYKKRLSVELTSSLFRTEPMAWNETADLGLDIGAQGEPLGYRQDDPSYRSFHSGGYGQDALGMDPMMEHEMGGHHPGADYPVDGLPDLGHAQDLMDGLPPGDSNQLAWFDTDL

[2] = test system: TCF/LEF luciferase Reporter in DLD1 cells; test: TCF reporter assay (DLD1 TCF/LEF luciferase reporter, Bright-Glo); assay type: cell-based; conditions: read-out: DLD1 4% Abs IC50
Method in brief: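 Readouts: Bright-Glo luciferase for reporter signal and CellTiter-Glo for cell viability, with absolute IC50 derived. The reporter clone came from lentiviral TCF/LEF-luciferase transduction of DLD1 cells, seeded 5000 cells/well in RPMI with 4% FBS and exposed overnight to serially diluted compounds.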

[3] = biological target: T2, full-length beta-Catenin (Uniprot ID P35222) (Homo sapiens, UniProt P35222); test: Fluorescence polarization IC50 (beta-catenin / 5FAM-TCF4 10-53 competition); assay type: binding; conditions: fluorescence polarization; read-out: beta-Catenin FP IC50
T2 construct: 10 nM full-length beta-Catenin (Uniprot ID P35222)
T2 sequence (P35222 1-781): T1 sequence (P35222 1-781)

[4] = test system: COLO320DM cells; assay type: cell-based; conditions: COLO320DM cells, read-out: COLO320DM Proliferation Abs IC50
Method in brief: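 COLO320DM cells at 250 cells/well in RPMI-1640 + 4% HI FBS, dosed after 18–22 h with a 7-point […] 1/2 dilution series from 20 uM down to 313 nM.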

[5] = DLD1 reporter, 4%, absolute IC50

| Structure (SMILES) | pIC50 ([1]; absolute IC50) | pIC50 [2, 5] | pIC50 [3] | pIC50 ([4]; absolute IC50) | pIC50 [1] | pIC50 ([2]; DLD1 4%) | pIC50 [4] | pIC50 ([2]; DLD1 reporter, 4%) |
| --- | --- | --- | --- | --- | --- | --- | --- | --- |
| CC(=O)N1CCC[C@]12CC=CCCCC1(CCCC=CCCCOC(=O)N3CC[C@@](C(=O)N[C@@H](Cc4ccsc4)C(=O)N[C@@H](Cc4csc5ccccc45)C(=O)N[C@@H](CCC(N)=O)C(N)=O)(C3)NC(=O)[C@H](CC(C)C)NC(=O)[C@H](Cc3ccccc3)NC(=O)[C@H](C)NC(=O)[C@H](C)NC(=O)[C@H](Cc3cccc(C(=O)O)c3)NC(=O)[C@H](CC(=O)O)NC1=O)NC(=O)[C@H](CC(C)(C)C)NC(=O)[C@H](CC(=O)O)NC2=O (stereo partly drawn) [I-1462, Ac-PL3-Asp-Npg-B5-Asp-3COOHF-Ala-Ala-Phe-Leu-PyrS2-3Thi-BztA-Gln-NH2] | 5.64 | 5.57 | 8.10 | 5.08 | – | – | – | – |
| CC(=O)N1CCC[C@]12CC=CCCCC1(CCCC=CCCCOC(=O)N3CC[C@@](C(=O)N[C@@H](Cc4ccccc4Cl)C(=O)N[C@@H](Cc4csc5ccccc45)C(=O)N[C@@H](CC(N)=O)C(=O)N[C@@H](C)C(=O)N[C@@H](C)C(=O)N[C@H](C)C(N)=O)(C3)NC(=O)[C@H](CC(C)C)NC(=O)[C@H](Cc3ccccc3)NC(=O)[C@H](C)NC(=O)[C@H](C)NC(=O)[C@H](Cc3cccc(C(=O)O)c3)NC(=O)[C@H](CC(=O)O)NC1=O)NC(=O)[C@H](CC(C)(C)C)NC(=O)[C@H](CC(=O)O)NC2=O (stereo partly drawn) [I-2041, Ac-PL3-Asp-Npg-B5-Asp-3COOHF-Ala-Ala-Phe-Leu-PyrS2-2C1F-BztA-Asn-Ala-Ala-dAla-NH2] | – | – | 7.80 | – | 5.64 | 5.72 | < 4.70 | – |
| CC(=O)N1CCC[C@]12CC=CCCCC1(CCCC=CCCCOC(=O)N3CC[C@@](C(=O)N[C@@H](Cc4ccsc4)C(=O)N[C@@H](Cc4csc5ccccc45)C(=O)N[C@@H](CC(N)=O)C(N)=O)(C3)NC(=O)[C@H](CC(C)C)NC(=O)[C@H](Cc3ccccc3)NC(=O)[C@H](C)NC(=O)[C@H](C)NC(=O)[C@H](Cc3cccc(C(=O)O)c3)NC(=O)[C@H](CC(=O)O)NC1=O)NC(=O)[C@H](CC(C)(C)C)NC(=O)[C@H](CC(=O)O)NC2=O (stereo partly drawn) [I-2043, Ac-PL3-Asp-Npg-B5-Asp-3COOHF-Ala-Ala-Phe-Leu-PyrS2-3Thi-BztA-Asn-NH2] | – | – | 8.10 | – | 5.55 | 6.00 | 4.82 | – |
| CC(=O)N1CCN(C(=O)CC[C@@H]2NC(=O)[C@H](Cc3cccc(C(=O)O)c3)NC(=O)[C@H](CC(=O)O)NC(=O)C3(CCCC=CCCCOC(=O)N4CC[C@@](C(=O)N[C@@H](Cc5ccccc5C(F)(F)F)C(=O)N[C@@H](Cc5csc6ccccc56)C(=O)N[C@@H](C)C(N)=O)(C4)NC(=O)[C@H](CC(C)C)NC(=O)[C@H](Cc4ccccc4)NC(=O)[C@H](C)NC2=O)CCCC=CC[C@]2(CCCN2C(C)=O)C(=O)N[C@@H](CC(=O)O)C(=O)N[C@@H](CC(C)(C)C)C(=O)N3)CC1 (stereo partly drawn) [I-2319, Ac-PL3-Asp-Npg-B5-Asp-3COOHF-[AcPpz]GlnR-Ala-Phe-Leu-PyrS2-2F3MeF-BztA-Ala-NH2] | 6.00 | 5.77 | 8.30 | < 4.70 | – | – | – | – |
| CC(=O)N1CCC[C@]12CC=CCCCC1(CCCC=CCCCOC(=O)N3CC[C@@](C(=O)N[C@@H](Cc4ccccc4C(F)(F)F)C(=O)N[C@@H](Cc4csc5ccccc45)C(=O)N[C@@H](CO)C(N)=O)(C3)NC(=O)[C@H](CC(C)C)NC(=O)[C@H](Cc3ccccc3)NC(=O)[C@H](C)NC(=O)[C@H](C)NC(=O)[C@H](Cn3cc(CC(C)(C)C(=O)O)nn3)NC(=O)[C@H](CC(=O)O)NC1=O)NC(=O)[C@H](CC(C)(C)C)NC(=O)[C@H](CC(=O)O)NC2=O (stereo partly drawn) [I-2372, Ac-PL3-Asp-Npg-B5-Asp-[CH2CMe2CO2H]TriAzDap-Ala-Ala-Phe-Leu-PyrS2-2F3MeF-BztA-Ser-NH2] | 5.59 | 5.68 | 8.30 | 5.15 | – | – | – | – |
| CC(=O)N1CCC[C@]12CC=CCCCC1(CCCC=CCCCOC(=O)N3CC[C@@](C(=O)N[C@@H](Cc4ccccc4C(F)(F)F)C(=O)N[C@@H](Cc4csc5ccccc45)C(=O)N[C@@H](CCC(N)=O)C(=O)N[C@@H](CC(C)C)C(=O)N[C@@H](Cc4ccccc4)C(N)=O)(C3)NC(=O)[C@H](CC(C)C)NC(=O)[C@H](Cc3ccccc3)NC(=O)[C@H](C)NC(=O)[C@H](C)NC(=O)[C@H](Cc3cccc(C(=O)O)c3)NC(=O)[C@H](CC(=O)O)NC1=O)NC(=O)[C@H](CC(C)(C)C)NC(=O)[C@H](CC(=O)O)NC2=O (stereo partly drawn) [I-2381, Ac-PL3-Asp-Npg-B5-Asp-3COOHF-Ala-Ala-Phe-Leu-PyrS2-2F3MeF-BztA-Gln-Leu-Phe-NH2] | 5.68 | 5.96 | 5.83 | < 4.70 | – | – | – | – |
| CC(=O)N1CCC[C@]12CC=CCCCC1(CCCC=CCCCOC(=O)N3CC[C@@](C(=O)N[C@@H](Cc4ccccc4C(F)(F)F)C(=O)N[C@@H](Cc4csc5ccccc45)C(=O)N[C@@H](CCC(N)=O)C(=O)N[C@@H](CC(C)C)C(=O)N[C@@H](Cc4c[nH]c5ccccc45)C(N)=O)(C3)NC(=O)[C@H](CC(C)C)NC(=O)[C@H](Cc3ccccc3)NC(=O)[C@H](C)NC(=O)[C@H](C)NC(=O)[C@H](Cc3cccc(C(=O)O)c3)NC(=O)[C@H](CC(=O)O)NC1=O)NC(=O)[C@H](CC(C)(C)C)NC(=O)[C@H](CC(=O)O)NC2=O (stereo partly drawn) [I-2394, Ac-PL3-Asp-Npg-B5-Asp-3COOHF-Ala-Ala-Phe-Leu-PyrS2-2F3MeF-BztA-Gln-Leu-Trp-NH2] | 5.66 | 6.15 | 6.27 | < 4.70 | – | – | – | – |
| CC[C@@H]1NC(=O)[C@H](Cc2ccccc2)NC(=O)[C@H](C)NC(=O)C(C)(C)NC(=O)[C@H](Cc2cccc(C(=O)O)c2)NC(=O)[C@H](CC(=O)O)NC(=O)C2(CCCC=CCCCOC(=O)N3CC[C@@](C(=O)N[C@@H](Cc4ccccc4C(F)(F)F)C(=O)N[C@@H](Cc4csc5ccccc45)C(=O)N[C@@H](CCC(=O)N(C)C)C(=O)N[C@@H](C)C(N)=O)(C3)NC1=O)CCCC=CC[C@]1(CCCN1C(C)=O)C(=O)N[C@@H](CC(=O)O)C(=O)N[C@@H](CC(C)(C)C)C(=O)N2 (stereo partly drawn) [I-2468, Ac-PL3-Asp-Npg-B5-Asp-3COOHF-Aib-Ala-Phe-Abu-PyrS2-2F3MeF-BztA-Me2Gln-Ala-NH2] | 5.21 | 5.19 | 7.42 | < 4.70 | – | – | – | – |
| CC[C@@H]1NC(=O)[C@H](Cc2ccccc2)NC(=O)[C@H](C)NC(=O)C(C)(C)NC(=O)[C@H](Cc2cccc(C(=O)O)c2)NC(=O)[C@H](CC(=O)O)NC(=O)C2(CCCC=CCCCOC(=O)N3CC[C@@](C(=O)N[C@@H](Cc4ccsc4)C(=O)N[C@@H](Cc4csc5ccccc45)C(=O)N[C@@H](CCC(=O)N(C)C)C(=O)N[C@@H](C)C(N)=O)(C3)NC1=O)CCCC=CC[C@]1(CCCN1C(C)=O)C(=O)N[C@@H](CC(=O)O)C(=O)N[C@@H](CC(C)(C)C)C(=O)N2 (stereo partly drawn) [I-2469, Ac-PL3-Asp-Npg-B5-Asp-3COOHF-Aib-Ala-Phe-Abu-PyrS2-3Thi-BztA-Me2Gln-Ala-NH2] | 5.64 | 6.22 | 8.15 | 5.25 | – | – | – | – |
| CC(=O)NCCCC[C@@H]1NC(=O)[C@H](Cc2ccccc2)NC(=O)[C@H](C)NC(=O)C(C)(C)NC(=O)[C@H](Cc2cccc(C(=O)O)c2)NC(=O)[C@H](CC(=O)O)NC(=O)C2(CCCC=CCCCOC(=O)N3CC[C@@](C(=O)N[C@@H](Cc4ccsc4)C(=O)N[C@@H](Cc4csc5ccccc45)C(=O)N[C@@H](C)C(=O)N[C@@H](C)C(N)=O)(C3)NC1=O)CCCC=CC[C@]1(CCCN1C(C)=O)C(=O)N[C@@H](CC(=O)O)C(=O)N[C@@H](CC(C)(C)C)C(=O)N2 (stereo partly drawn) [I-2578, Ac-PL3-Asp-Npg-B5-Asp-3COOHF-Aib-Ala-Phe-AcLys-PyrS2-3Thi-BztA-Ala-Ala-NH2] | – | – | 8.30 | – | 5.26 | – | 5.11 | 5.39 |
